The target of experiment [1] is T1, 2-acylglycerol O-acyltransferase 2 (Homo sapiens, UniProt Q3SYC2). The experiment in a line: Inhibition of human MGAT2 by LC/MS assay.
In experiment [2] the target is T1, 2-acylglycerol O-acyltransferase 2. The experiment in a line: Inhibition of human MGAT2 by SPA assay.

pIC50: −log10 of the molar value.

T1 sequence (Q3SYC2 whole entry): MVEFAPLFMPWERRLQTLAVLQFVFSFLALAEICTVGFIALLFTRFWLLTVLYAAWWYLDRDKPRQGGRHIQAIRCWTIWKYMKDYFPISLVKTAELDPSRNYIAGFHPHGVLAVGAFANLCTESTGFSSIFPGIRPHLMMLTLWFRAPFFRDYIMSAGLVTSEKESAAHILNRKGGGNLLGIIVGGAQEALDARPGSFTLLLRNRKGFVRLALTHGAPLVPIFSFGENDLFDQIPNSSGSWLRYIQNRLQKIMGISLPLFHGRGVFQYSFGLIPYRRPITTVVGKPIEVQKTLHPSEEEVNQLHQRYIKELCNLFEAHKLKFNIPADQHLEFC

As for `Cc1ccc(C2=C(C(=O)Nc3ccno3)C(=O)N[C@@](c3ccc(OCCCC(F)(F)F)cc3)(C(F)(F)F)C2)cc1`, the pIC50 (usually the IC50 on a negative log10 scale, so that one unit is a factor of ten) in experiment [1] is 8.70; in experiment [2], 8.10.
The like results for `Cc1ccc(C2=C(C(=O)Nc3ccc(-c4nnn[nH]4)cc3)C(=O)N[C@@](c3ccc(OCCCC(F)(F)F)cc3)(C(F)(F)F)C2)cc1` were, in that order, 8.15 and 8.05.

Source of the values: ChEMBL document CHEMBL2439962, “Fighting Obesity and Metabolic Disorders with MGAT-2 Inhibitors” (ACS Med Chem Lett, 2013).
